Laboratory results: PubChem BioAssay (NCI)
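Following 48 hours of exposure in 96-well plates, responses at five concentrations were used to interpolate endpoints linearly. TGI marks complete inhibition of growth.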

Columns and labels:
Assay in all cases: DTP human tumour cell line panel, 48 h
786-0 renal = system: 786-0 renal
A498 renal = system: A498 renal
A549 NSCLC = system: A549 NSCLC
ACHN renal = system: ACHN renal
CAKI-1 renal = system: CAKI-1 renal
CCRF-CEM leukemia = system: CCRF-CEM leukemia
COLO 205 colon = system: COLO 205 colon
DMS 114 small cell lung = system: DMS 114 small cell lung
EKVX NSCLC = system: EKVX NSCLC
HCT-116 colon = system: HCT-116 colon
HL-60(TB) leukemia = system: HL-60(TB) leukemia
HOP-18 NSCLC = system: HOP-18 NSCLC
HOP-62 NSCLC = system: HOP-62 NSCLC
HOP-92 NSCLC = system: HOP-92 NSCLC
HT29 colon = system: HT29 colon
IGROV1 ovarian = system: IGROV1 ovarian
K-562 leukemia = system: K-562 leukemia
KM12 colon = system: KM12 colon
LOX IMVI melanoma = system: LOX IMVI melanoma
LXFL 529 NSCLC = system: LXFL 529 NSCLC
M14 melanoma = system: M14 melanoma
M19-MEL melanoma = system: M19-MEL melanoma
MALME-3M melanoma = system: MALME-3M melanoma
MOLT-4 leukemia = system: MOLT-4 leukemia
NCI-H226 lung = system: NCI-H226 lung
NCI-H23 lung = system: NCI-H23 lung
NCI-H460 lung = system: NCI-H460 lung
NCI-H522 lung = system: NCI-H522 lung
OVCAR-3 ovarian = system: OVCAR-3 ovarian
OVCAR-4 ovarian = system: OVCAR-4 ovarian
OVCAR-8 ovarian = system: OVCAR-8 ovarian
RXF 393 renal = system: RXF 393 renal
RXF-631 renal = system: RXF-631 renal
SF-268 CNS = system: SF-268 CNS
SF-295 CNS = system: SF-295 CNS
SF-539 CNS = system: SF-539 CNS
SK-MEL-28 melanoma = system: SK-MEL-28 melanoma
SK-MEL-5 melanoma = system: SK-MEL-5 melanoma
SK-OV-3 ovarian = system: SK-OV-3 ovarian
SN12C renal = system: SN12C renal
SNB-19 CNS = system: SNB-19 CNS
SNB-75 CNS = system: SNB-75 CNS
SNB-78 CNS = system: SNB-78 CNS
SR leukemia = system: SR leukemia
SW-620 colon = system: SW-620 colon
TK-10 renal = system: TK-10 renal
U251 CNS = system: U251 CNS
UACC-257 melanoma = system: UACC-257 melanoma
UACC-62 melanoma = system: UACC-62 melanoma
UO-31 renal = system: UO-31 renal
XF 498 CNS = system: XF 498 CNS
DLD-1 colon = system: DLD-1 colon
DMS 273 small cell lung = system: DMS 273 small cell lung
HCC-2998 colon = system: HCC-2998 colon
HCT-15 colon = system: HCT-15 colon
KM20L2 colon = system: KM20L2 colon
OVCAR-5 ovarian = system: OVCAR-5 ovarian
RPMI-8226 leukemia = system: RPMI-8226 leukemia

Q: Which results are given for CC1CC[C@]2(C(=O)O)CCC3(C)C(=CC(=O)C4[C@@]5(C)CCC(=O)C(C)(C)C5CC[C@]43C)[C@@H]2[C@H]1C (stereo not given in full)?
A: TGI (786-0 renal): > 100 µM; TGI (A498 renal): > 100 µM; TGI (A549 NSCLC): > 100 µM; TGI (ACHN renal): > 100 µM; TGI (CAKI-1 renal): > 100 µM; TGI (CCRF-CEM leukemia): 58.9 µM; TGI (COLO 205 colon): 33.7 µM; TGI (DMS 114 small cell lung): 63.1 µM; TGI (EKVX NSCLC): > 100 µM; TGI (HCT-116 colon): 43 µM; TGI (HL-60(TB) leukemia): 24.7 µM; TGI (HOP-18 NSCLC): 94.6 µM; TGI (HOP-62 NSCLC): 46.3 µM; TGI (HOP-92 NSCLC): 73.2 µM; TGI (HT29 colon): > 100 µM; TGI (IGROV1 ovarian): > 100 µM; TGI (K-562 leukemia): > 100 µM; TGI (KM12 colon): 56.1 µM; TGI (LOX IMVI melanoma): 42.8 µM; TGI (LXFL 529 NSCLC): > 100 µM; TGI (M14 melanoma): > 100 µM; TGI (M19-MEL melanoma): 71.3 µM; TGI (MALME-3M melanoma): 80.3 µM; TGI (MOLT-4 leukemia): 32.2 µM; TGI (NCI-H226 lung): 92.6 µM; TGI (NCI-H23 lung): 79.3 µM; TGI (NCI-H460 lung): > 100 µM; TGI (NCI-H522 lung): 71.3 µM; TGI (OVCAR-3 ovarian): 44 µM; TGI (OVCAR-4 ovarian): > 100 µM; TGI (OVCAR-8 ovarian): > 100 µM; TGI (RXF 393 renal): 49.4 µM; TGI (RXF-631 renal): > 100 µM; TGI (SF-268 CNS): > 100 µM; TGI (SF-295 CNS): > 100 µM; TGI (SF-539 CNS): 44.1 µM; TGI (SK-MEL-28 melanoma): 42.9 µM; TGI (SK-MEL-5 melanoma): > 100 µM; TGI (SK-OV-3 ovarian): > 100 µM; TGI (SN12C renal): > 100 µM; TGI (SNB-19 CNS): > 100 µM; TGI (SNB-75 CNS): > 100 µM; TGI (SNB-78 CNS): > 100 µM; TGI (SR leukemia): 37.5 µM; TGI (SW-620 colon): > 100 µM; TGI (TK-10 renal): 90.2 µM; TGI (U251 CNS): 98.8 µM; TGI (UACC-257 melanoma): 96.9 µM; TGI (UACC-62 melanoma): 30.6 µM; TGI (UO-31 renal): 38.1 µM; TGI (XF 498 CNS): 29.5 µM

Q: NC(N)=N/N=C(\c1nc2ccc([N+](=O)[O-])cc2[nH]c1=O)C(O)c1ccc([N+](=O)[O-])cc1 (stereo not given) was tested. Which TGI (786-0 renal) did it give?
A: > 100 µM

Q: What about the TGI (A549 NSCLC) of the same compound?
A: > 100 µM

Q: What about the TGI (ACHN renal) of the same compound?
A: > 100 µM

Q: And the TGI (CAKI-1 renal)?
A: > 100 µM

Q: And the TGI (CCRF-CEM leukemia)?
A: > 100 µM

Q: What about the TGI (COLO 205 colon) of the same compound?
A: > 100 µM

Q: And the TGI (DLD-1 colon)?
A: > 100 µM

Q: And the TGI (DMS 114 small cell lung)?
A: 75 µM

Q: And the TGI (DMS 273 small cell lung)?
A: > 100 µM

Q: What about the TGI (HCC-2998 colon) of the same compound?
A: 79.8 µM

Q: And the TGI (HCT-116 colon)?
A: > 100 µM

Q: What about the TGI (HCT-15 colon) of the same compound?
A: > 100 µM

Q: What about the TGI (HL-60(TB) leukemia) of the same compound?
A: > 100 µM

Q: What about the TGI (HOP-62 NSCLC) of the same compound?
A: > 100 µM

Q: What about the TGI (HOP-92 NSCLC) of the same compound?
A: > 100 µM

Q: And the TGI (HT29 colon)?
A: > 100 µM

Q: What about the TGI (IGROV1 ovarian) of the same compound?
A: > 100 µM

Q: What about the TGI (K-562 leukemia) of the same compound?
A: > 100 µM

Q: What about the TGI (KM12 colon) of the same compound?
A: > 100 µM

Q: What about the TGI (KM20L2 colon) of the same compound?
A: > 100 µM

Q: What about the TGI (LOX IMVI melanoma) of the same compound?
A: > 100 µM

Q: What about the TGI (LXFL 529 NSCLC) of the same compound?
A: > 100 µM

Q: And the TGI (M14 melanoma)?
A: > 100 µM

Q: And the TGI (M19-MEL melanoma)?
A: > 100 µM

Q: And the TGI (MALME-3M melanoma)?
A: > 100 µM

Q: And the TGI (MOLT-4 leukemia)?
A: > 100 µM

Q: What about the TGI (NCI-H226 lung) of the same compound?
A: > 100 µM

Q: And the TGI (NCI-H23 lung)?
A: > 100 µM

Q: What about the TGI (NCI-H460 lung) of the same compound?
A: > 100 µM

Q: What about the TGI (NCI-H522 lung) of the same compound?
A: 89.6 µM

Q: And the TGI (OVCAR-3 ovarian)?
A: > 100 µM

Q: And the TGI (OVCAR-4 ovarian)?
A: > 100 µM

Q: And the TGI (OVCAR-5 ovarian)?
A: > 100 µM

Q: What about the TGI (OVCAR-8 ovarian) of the same compound?
A: > 100 µM

Q: What about the TGI (RPMI-8226 leukemia) of the same compound?
A: > 100 µM

Q: And the TGI (RXF 393 renal)?
A: > 100 µM

Q: And the TGI (RXF-631 renal)?
A: > 100 µM

Q: What about the TGI (SF-268 CNS) of the same compound?
A: > 100 µM

Q: And the TGI (SF-295 CNS)?
A: > 100 µM

Q: And the TGI (SF-539 CNS)?
A: > 100 µM

Q: What about the TGI (SK-MEL-28 melanoma) of the same compound?
A: > 100 µM

Q: And the TGI (SK-MEL-5 melanoma)?
A: > 100 µM

Q: What about the TGI (SK-OV-3 ovarian) of the same compound?
A: > 100 µM

Q: What about the TGI (SN12C renal) of the same compound?
A: > 100 µM

Q: And the TGI (SNB-19 CNS)?
A: > 100 µM

Q: What about the TGI (SNB-75 CNS) of the same compound?
A: > 100 µM

Q: What about the TGI (SNB-78 CNS) of the same compound?
A: > 100 µM

Q: What about the TGI (SR leukemia) of the same compound?
A: > 100 µM

Q: And the TGI (SW-620 colon)?
A: > 100 µM

Q: What about the TGI (U251 CNS) of the same compound?
A: > 100 µM

Q: And the TGI (UACC-257 melanoma)?
A: > 100 µM

Q: And the TGI (UACC-62 melanoma)?
A: > 100 µM

Q: And the TGI (UO-31 renal)?
A: > 100 µM

Q: What about the TGI (XF 498 CNS) of the same compound?
A: > 100 µM
